Test [1] has as its target T1, Recombinant Human His-Tagged Cadherin-11 Protein (CDH11) (Homo sapiens, UniProt P55287).
T1 construct: commercial recombinant His-tagged protein (Sino Biological); amine-coupled to CM7 chip
T1 sequence (P55287 54-617 limits assumed): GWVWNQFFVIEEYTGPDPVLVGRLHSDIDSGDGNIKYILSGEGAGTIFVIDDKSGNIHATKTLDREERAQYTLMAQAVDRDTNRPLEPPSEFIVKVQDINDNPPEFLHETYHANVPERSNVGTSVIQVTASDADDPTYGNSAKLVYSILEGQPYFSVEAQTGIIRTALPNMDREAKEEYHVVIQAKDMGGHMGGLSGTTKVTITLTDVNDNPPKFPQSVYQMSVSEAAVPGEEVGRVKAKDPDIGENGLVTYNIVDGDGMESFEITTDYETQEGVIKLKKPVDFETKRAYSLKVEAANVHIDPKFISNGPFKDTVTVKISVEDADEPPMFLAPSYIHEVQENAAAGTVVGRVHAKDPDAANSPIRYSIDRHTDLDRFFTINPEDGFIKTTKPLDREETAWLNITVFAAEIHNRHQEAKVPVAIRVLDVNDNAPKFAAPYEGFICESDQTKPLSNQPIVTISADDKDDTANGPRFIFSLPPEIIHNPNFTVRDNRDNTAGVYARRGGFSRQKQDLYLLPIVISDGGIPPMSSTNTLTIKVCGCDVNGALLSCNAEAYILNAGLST
The experiment in a line: surface plasmon resonance (Biacore, CM7 chip, protein immobilised). In kind it is binding.

The next test concerns the target T2, CDH11 (SACC-83 cells) (Homo sapiens, UniProt P55287).
T2 construct: endogenous CDH11 in intact SACC-83 cells, untagged, detected by western blot with anti-CDH11 antibody
T2 sequence (P55287 54-796): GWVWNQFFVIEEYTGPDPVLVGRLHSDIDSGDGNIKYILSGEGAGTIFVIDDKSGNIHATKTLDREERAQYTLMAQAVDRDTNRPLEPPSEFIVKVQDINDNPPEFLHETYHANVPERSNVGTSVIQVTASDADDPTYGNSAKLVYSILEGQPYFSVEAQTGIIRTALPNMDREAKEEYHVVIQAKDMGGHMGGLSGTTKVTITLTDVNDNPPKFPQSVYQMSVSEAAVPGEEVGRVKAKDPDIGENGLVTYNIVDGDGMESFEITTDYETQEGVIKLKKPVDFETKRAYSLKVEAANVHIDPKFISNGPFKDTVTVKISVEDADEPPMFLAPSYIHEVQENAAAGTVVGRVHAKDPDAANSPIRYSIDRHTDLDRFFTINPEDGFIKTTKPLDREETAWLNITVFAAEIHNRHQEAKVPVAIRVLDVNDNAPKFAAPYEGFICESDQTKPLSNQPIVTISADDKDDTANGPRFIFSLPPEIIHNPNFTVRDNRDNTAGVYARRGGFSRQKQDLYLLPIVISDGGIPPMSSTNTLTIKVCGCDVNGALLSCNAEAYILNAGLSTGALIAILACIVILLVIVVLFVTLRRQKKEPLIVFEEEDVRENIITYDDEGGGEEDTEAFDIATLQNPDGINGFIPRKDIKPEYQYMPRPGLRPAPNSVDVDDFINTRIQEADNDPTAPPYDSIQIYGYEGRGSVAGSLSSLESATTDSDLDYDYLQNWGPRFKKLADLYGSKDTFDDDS
The experiment in a line: cellular thermal shift assay (western blot). In kind it is cell-based. Conditions: intact cells, 6 h treatment at cell-viability IC50 dose; 53-66 °C, 3 min.

Read-outs that look alike come from different tables or passages of the source.

The Kd is the constant that tells how readily two partners part at equilibrium. `Cc1ccc(-c2cc(C(F)(F)F)nn2-c2ccc(S(N)(=O)=O)cc2)cc1` [CXB, Celecoxib]: in test [1], the Kd came out at 4.67 µM. Moreover, the “cellular thermal shift assay (western blot)” value at CDH11 (SACC-83 cells) is on record as “All three compounds exhibited significant binding capability toward CDH11”.
Consider `Cc1ccc(C)c(-c2cc(C(F)(F)F)nn2-c2ccc(S(N)(=O)=O)cc2)c1` [DMC, Dimethylcelecoxib], for which the dissociation constant (Kd) in test [1] amounted to 10.9 µM. Moreover, the “cellular thermal shift assay (western blot)” value at CDH11 (SACC-83 cells) is “All three compounds exhibited significant binding capability toward CDH11”.
For the compound SD-133, the Kd in test [1] (25 °C, analyte 3.125-100 µM) is 27.4 µM.

(Values after article PMC11848559, “Inhibition of CDH11 Activates cGAS‐STING by Stimulating Branched Chain Amino Acid Catabolism and Mitigates Lung Metastasis of Adenoid Cystic Carcinoma” (Advanced Science, 2024).)
